Like-named read-outs stand apart in the source and are kept apart here.
Legend:
Assay type in all cases: biochemical
Nape-pld [1] = target: T1, Nape-pld (Mus musculus, UniProt Q8BH82); assay: fluorogenic PED-A1 hydrolysis assay, activation; conditions: read-out: EC50 μM^b (95% CI)
NAPE-PLD [2] = target: NAPE-PLD (Homo sapiens, UniProt Q6IQ20); assay: recombinant human enzyme, PED-A1 fluorogenic assay, activation
Nape-pld [3] = target: T1, Nape-pld; assay: fluorogenic PED-A1 hydrolysis assay, activation; conditions: read-out: EC50 μM^b (95% CI); remark: listed apart in the source
Nape-pld [4] = target: T1, Nape-pld; assay: fluorogenic PED-A1 hydrolysis assay, activation; conditions: read-out: EC50 μM^b (95% CI); remark: listed apart in the source
[5] = target: T2, soluble epoxide hydrolase (sEH) (Homo sapiens, UniProt P34913); assay: sEH activity assay kit
T2 sequence (P34913 1-555): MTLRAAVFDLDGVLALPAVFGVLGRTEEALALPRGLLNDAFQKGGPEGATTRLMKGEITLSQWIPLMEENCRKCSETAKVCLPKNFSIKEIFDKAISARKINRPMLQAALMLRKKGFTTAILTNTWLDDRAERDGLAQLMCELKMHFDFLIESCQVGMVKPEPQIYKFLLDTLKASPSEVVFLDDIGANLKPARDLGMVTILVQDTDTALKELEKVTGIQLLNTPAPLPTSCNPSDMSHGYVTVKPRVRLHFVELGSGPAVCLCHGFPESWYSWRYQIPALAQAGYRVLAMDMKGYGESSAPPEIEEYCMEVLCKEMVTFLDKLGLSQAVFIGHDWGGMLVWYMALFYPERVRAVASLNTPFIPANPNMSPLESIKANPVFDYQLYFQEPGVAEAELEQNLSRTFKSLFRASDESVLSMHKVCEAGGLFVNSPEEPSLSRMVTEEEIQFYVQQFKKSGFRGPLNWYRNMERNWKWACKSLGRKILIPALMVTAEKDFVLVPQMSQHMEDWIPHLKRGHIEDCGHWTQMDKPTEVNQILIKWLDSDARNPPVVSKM

T1 sequence (Q8BH82 whole entry): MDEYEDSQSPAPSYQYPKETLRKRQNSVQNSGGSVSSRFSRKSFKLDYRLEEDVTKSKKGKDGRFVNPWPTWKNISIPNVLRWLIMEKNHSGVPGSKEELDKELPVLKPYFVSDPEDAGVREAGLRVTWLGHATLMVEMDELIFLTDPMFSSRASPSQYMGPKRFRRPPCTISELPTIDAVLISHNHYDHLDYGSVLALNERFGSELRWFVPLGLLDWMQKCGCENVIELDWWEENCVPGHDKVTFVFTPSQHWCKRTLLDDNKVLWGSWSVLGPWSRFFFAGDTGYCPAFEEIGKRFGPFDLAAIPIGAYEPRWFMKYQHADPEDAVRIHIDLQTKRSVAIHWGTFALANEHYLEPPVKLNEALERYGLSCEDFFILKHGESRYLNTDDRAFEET
NAPE-PLD, sequence (Q6IQ20 whole entry): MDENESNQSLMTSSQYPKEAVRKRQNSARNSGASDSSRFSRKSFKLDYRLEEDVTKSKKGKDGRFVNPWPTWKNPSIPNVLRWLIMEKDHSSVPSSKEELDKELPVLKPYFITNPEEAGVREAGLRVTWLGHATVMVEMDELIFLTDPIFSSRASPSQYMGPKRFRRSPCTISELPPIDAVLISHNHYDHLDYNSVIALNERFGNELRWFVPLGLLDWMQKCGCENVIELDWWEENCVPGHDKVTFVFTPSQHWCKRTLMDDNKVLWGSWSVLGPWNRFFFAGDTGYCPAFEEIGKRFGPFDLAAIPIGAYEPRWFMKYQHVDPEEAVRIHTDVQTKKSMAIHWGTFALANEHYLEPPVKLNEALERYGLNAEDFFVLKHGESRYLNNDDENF

Q: How did the EC50 (Nape-pld [1]) turn out when `Cc1ccc(C)c2sc(NC(=O)C3CCN(S(=O)(=O)c4ccc(F)cc4)CC3)nc12` [compound 9, VU533] was run?
A: 0.3 µM

Q: And the EC50 (NAPE-PLD [2])?
A: 0.2 µM

Q: Which EC50 (Nape-pld [3]) does the source give for `Cc1ccc2nc(NC(=O)C3CCN(S(=O)(=O)c4ccc(F)cc4)CC3)sc2c1` [compound 3, VU486] here?
A: 0.32 µM

Q: For `Cc1ccc2nc(NC(=O)C3CCN(S(=O)(=O)c4ccc(Cl)cc4)CC3)sc2c1` [compound 5, VU539], which EC50 (Nape-pld [3]) is on record?
A: 0.74 µM

Q: With `Cc1cc(C)c2sc(NC(=O)C3CCN(S(=O)(=O)c4ccc(F)cc4)CC3)nc2c1` [compound 8, VU534] as the compound, how does the EC50 (Nape-pld [4]) read?
A: 0.3 µM

Q: And the IC50 [5]?
A: 1.2 µM

Q: And the EC50 (NAPE-PLD [2])?
A: 0.93 µM

Reference: paper PMC9900783 (bioRxiv, 2023)
